Data: patent US7015251B1 (priority 1999, dated 2006)
In brackets after ≈: the same amount, converted by molar mass.

Assays:
LnCap = assay: MTT dye assay at 72 hrs, LnCap; assay type: cell-based, human; details: CERAMIDE (25 μg/nl) alone; LnCap
Tu138 cell-tumor = assay: Tu138 tumor in nude mice, subcutaneous treatment near tumor site; details: ceramide alone 500 μg/0.2 mL s.c. thrice weekly
Method: To corroborate in vitro findings Tu138 cells were planted subcutaneously on nude mice. […] Tumor size was measured once a week. All groups of mice were sacrificed on day 45 and excised tumors were weighed.

Jurkat = assay: MTT dye assay at 72 hrs, Jurkat; assay type: cell-based, human; details: CERAMIDE (25 μg/nl) alone
Tu138 cells [1] = test system: Tu138 cells
Excerpt: The vehicle control consisted of cremophore only at the concentration utilized in the combination treatment.
In a separate experiment nude mice were implanted with 1−2×10^6 Tu138 cells. […] The vehicle control consisted of cremophore only at the concentration utilized in the combination treatment.

tumor cell lines = assay: MTT dye assay at 72 hrs, tumor cell lines tested (ID50); assay type: cell-based, human; details: ceramide, approximately
Tu138 cells [2] = assay: Tu138 MTT dye assay (cytotoxicity, isobologram); details: for cytotoxicity: 3 days of culture; for cell cytotoxicity (time kinetics): ceramide 25 μg/ml alone
Method: Tu138, an adherent squamous carcinoma cell line of the head and neck was established at U T M D Anderson Cancer Center, Houston, Tex. (20, 21) and was generously provided by Dr. Gary Clayman's laboratory. Tu138 cells were maintained routinely in T-75 culture flasks (Falcon, Inc., NJ) at a plating cell density of 0.1×10^6 per 75 sq. cm. surface area in complete D-MEM/F-12 culture medium (10 ml) containing 10% fetal bovine serum (FBS, Atlanta Biologicals, Ga.), 2 mM glutamine (Gibco, NY), 50 units/mL penicillin, […] streptomycin (Gibco, NY) and 20 mM Hepes (Sigma, MO) in a 5% CO2 atmosphere at 37° C. Tu138 cells were replenished with fresh complete culture medium twice weekly until confluence.
At the indicated times (24 to 72 hours), cells were subjected to (a) tetrazolium-based dye assay for cell survival measurements, (b) flow cytometry analysis for cell cycle progression and (c) measurements of apoptosis by TUNEL assay.
(22). At the end of an incubation period of 4 hours, culture plates were centrifuged at 300 g for 2 minutes.

Tu138 tumor = Tu138 tumor in nude mice, intraperitoneal treatment; details: paclitaxel 120 μg and/or ceramide 500 μg, within 4 weeks of administration
HT29 = assay: MTT dye assay at 72 hrs, HT29; assay type: cell-based, human; details: CERAMIDE (25 μg/nl) alone; HT29
Jurkat cells [3] = assay: Jurkat cell proliferation assay (3H-thymidine uptake); assay type: cell-based, human; details: for [3H]thymidine uptake counts ± SD: Ceramide 25 μg/ml
Method: Cell Proliferation Assays. […] DNA synthesis was assessed by the addition of ^3H-thymidine (1 μCi/well; specific activity—6.7 Ci/mmol; ICN Pharmaceuticals, Costa Mesa, Calif.) uptake 24 hours before the end of the 72 hour growth period at a final concentration of 1 μCi/well.

RWP-2 = assay: MTT dye assay at 72 hrs, RWP-2; assay type: cell-based, human; details: CERAMIDE (25 μg/nl) alone; RWP-2
Tu138 cells [4] = assay: Tu138 cell cycle measurements (flow cytometry); assay type: cell-based, human; details: ceramide 25 μg/ml alone, 24 or 48 hours, n=4
Method: (§1) At the end of either 24 or 48 hours, cells were trypsinized and washed with the culture medium. For cell cycle measurements, cells were mixed with 0.5 ml of 0.1% propidium iodide solution (New Concepts Scientific Ltd. ON) containing 0.1% sodium citrate and 0.1% NP-40. RNase (1 μg) was added to each sample and cells were incubated at 4° C. for 30 minutes. At least 1×10^4 cells were acquired on a precalibrated FACScan (Beckton Dickinson, Calif.) flow cytometer. For precalibration “DNA QC” (Becton Dickinson, Calif.) kit was utilized. The acquired cells were then subjected to cell cycle analysis by the use of “Modfit LT” software (Beckton Dickinson, Calif.). For measurements of apoptosis, In Situ Cell Death Detection Kit (Boehringer Manheim, Ind.) followed by flow cytometry analysis was utilized.

PC-3 = assay: MTT dye assay at 72 hrs, PC-3; assay type: cell-based, human; details: CERAMIDE (25 μg/nl) alone
TU138 = assay: MTT dye assay at 72 hrs, TU138; assay type: cell-based, human; details: CERAMIDE (25 μg/nl) alone; TU138
Jurkat cells [5] = assay: Jurkat histologic evaluation (Wright's stain); assay type: cell-based, human; details: ceramide 25 μg/ml, 10% serum, 48 hours
Method: Histologic Evaluation. […] Wright's stains of all slides were performed using an automated Hemastainer (Geometric Data, Wayne, Pa.). Slides were analyzed microscopically, photographed (Olympus BH 2, Tokyo, Japan) at 100, 200, and 400 power, and evaluated for morphological changes.

Jurkat cells [6] = assay: Jurkat cell cycle analysis (propidium iodide, FACScan); assay type: cell-based, human; details: ceramide treatment, 10% fetal bovine serum, 24 hours
Excerpt: Cell Cycle Analysis. […] Pie graphs (FIGS. 3A–F) were generated and normalized to a control value of 100%.

Jurkat cells [7] = assay: Jurkat TUNEL assay for apoptosis; assay type: cell-based, human; details: 48 hours
Method: Terminal deoxynucleotide transferase (TdT) mediated deoxyuridine triphosphate (dUTP) nick-end labeling (TUNEL) assay. […] At 24 and 48 hours, DNA strand breaks were labeled with TUNEL assay (In Situ Cell Death Detection Kit, Fluorescein; Boehringer Mannheim, Indianapolis, Ind.), and cellular apoptosis was measured by flow cytometry.

Tu138 cells [8] = assay: Tu138 TUNEL assay for apoptosis; assay type: cell-based, human; details: ceramide 25 μg/ml alone
Method: as §1

SMILES: CCCCCCCCCCCCC/C=C/[C@@H](O)[C@H](CO)NC(=O)CCCCC [Ceramide, N-hexanoyl-D-sphingosine]
- % Growth Inhibition (LnCap): 25%
- tumor weight (Tu138 cell-tumor; excised day 45): substantial reduction in tumor weight
- tumor size (Tu138 cell-tumor; week 5): slight decrease in tumor size
- % Growth Inhibition (Jurkat): 8%
- toxicity (Tu138 cells [1]; ceramide delivered in cremophore, nude mice): no toxicity
- Tumor Size (mm^2) at Week 5 (Tu138 cells [1]; paclitaxel 120 μg and/or ceramide 500 μg in cremophore, s.c. near tumor thrice weekly from day 4 for 5 weeks): 109.5 ± 14.1 mm^2
- reduction in tumor growth / tumor size vs vehicle control (Tu138 cells [1]; paclitaxel 120 μg and/or ceramide 500 μg in cremophore, s.c., week 5 (Table 3)): 44.7%
- calculated ID50 (cytotoxicity) (tumor cell lines): 30.0 to 40.0 µg/mL
- cytotoxicity (Tu138 cells [2]; ceramide 12.5 μg/ml): 19%
- cell cytotoxicity (time kinetics) (Tu138 cells [2]; 24 hours): 32.7%
- cell cytotoxicity (time kinetics) (Tu138 cells [2]; 72 hours): 54.5%
- cytotoxicity (Tu138 cells [2]; ceramide 25 μg/ml): 46%
- ED50 (cytotoxicity, MTT) (Tu138 cells [2]; ceramide alone, n=6, 3 days): 22 ± 5 µg/mL (≈ 55.3 µM)
- tumor size / tumor burden reduction in comparison to control (vehicle) (Tu138 tumor): no significant effect
- % Growth Inhibition (HT29): 61%
- [3H]thymidine uptake counts ± SD (Jurkat cells [3]; Experiment 1): 378245 ± 28689 cpm
- [3H]thymidine uptake counts ± SD (Jurkat cells [3]; Experiment 2): 415740 ± 6168 cpm
- [3H]thymidine uptake counts ± SD (Jurkat cells [3]; Experiment 3): 301993 ± 67599 cpm
- [3H]thymidine uptake counts ± SD (Jurkat cells [3]; Experiment 4): 259230 ± 54914 cpm
- [3H]thymidine uptake counts ± SD (Jurkat cells [3]; Experiment 5): 189052 ± 3534 cpm
- growth inhibition (Jurkat cells [3]; ceramide added alone, all test concentrations (0 to 50 μg/ml), 10% fetal bovine serum): ≤ 6%
- ceramide-mediated growth inhibition (Jurkat cells [3]; low serum (1%)): > 99%
- % Growth Inhibition (RWP-2): 6%
- effect on cell cycle progression (Tu138 cells [4]): did not significantly affect either G0–G1 or G2-M phase
- effect on cell cycle progression (Tu138 cells [4]; listed as ceramide): no significant effect
- % Growth Inhibition (PC-3): 8%
- % Growth Inhibition (TU138): 28%
- morphological changes (Wright's stain) (Jurkat cells [5]): morphologically indistinguishable from control cells
- cell cycle pattern (Jurkat cells [6]): did not differ from the non-ceramide-exposed control
- apoptosis (TUNEL) (Jurkat cells [7]; 12.5 μg/ml of ceramide): 0.41%
- apoptosis (TUNEL) (Jurkat cells [7]; 25 μg/ml of ceramide): 0.33%
- apoptosis (TUNEL) (Tu138 cells [8]; 24 hours): 9.7%
- apoptosis (TUNEL) (Tu138 cells [8]; 48 hours): 13.6%
